From BindingDB's records for doi:10.1021/jm00099a007 (Merck Research Laboratories, 1992)

Molecular target: T1, Gag-Pol polyprotein [588-1027]/[588-1147] (Human immunodeficiency virus 1, UniProt P04585)
T1 construct: 588-1027; 588-1147
Assay: HIV-1 RT Assay

O=c1[nH]c2ccccc2cc1NCc1ccc2ccccc2c1 [3-[(naphthalen-2-ylmethyl)amino]-1,2-dihydroquinolin-2-one]
IC50: > 300 µM
